Test results: the NIST ThermoML archive (doi:10.1021/acs.jced.9b00187)
Numbers after ± are expanded uncertainties.

How the values were obtained:
[1] = Liquid; for vapor or sublimation pressure: Closed cell (Static) method; for viscosity: Moving piston method
[2] = xn = mol fraction of the nth substance listed; conditions: Liquid, Moving piston method

## O=C=O [carbon dioxide]
[1]; 282.15 K
  vapor or sublimation pressure: 4392 ± 54 kPa
[1]; 287.11 K
  vapor or sublimation pressure: 4961 ± 54 kPa
[1]; 291.84 K
  vapor or sublimation pressure: 5555 ± 55 kPa
[1]; 296.64 K
  vapor or sublimation pressure: 6214 ± 56 kPa
[1]; 301.38 K
  vapor or sublimation pressure: 6928 ± 57 kPa

## CCCCCCCCCCCC [dodecane]
[1]; 284.6 K, 670 kPa
  viscosity: 1.75 ± 0.05 mPa·s
[1]; 284.6 K, 2190 kPa
  viscosity: 1.78 ± 0.05 mPa·s
[1]; 284.7 K, 2710 kPa
  viscosity: 1.79 ± 0.05 mPa·s
[1]; 284.7 K, 4240 kPa
  viscosity: 1.82 ± 0.05 mPa·s
[1]; 294 K, 8310 kPa
  viscosity: 1.63 ± 0.05 mPa·s
[1]; 322.3 K, 4240 kPa
  viscosity: 0.98 ± 0.04 mPa·s
[1]; 350.5 K, 690 kPa
  viscosity: 0.66 ± 0.03 mPa·s
[1]; 350.5 K, 4250 kPa
  viscosity: 0.68 ± 0.03 mPa·s
[1]; 350.5 K, 8310 kPa
  viscosity: 0.72 ± 0.03 mPa·s
[1]; 353.1 K, 8320 kPa
  viscosity: 0.69 ± 0.03 mPa·s

## CCCCCCCCCCCC [dodecane] + O=C=O
[2]; 283.7 K, 4630 kPa, x2 = 0.8
  viscosity: 0.353 ± 0.039 mPa·s
[2]; 283.97 K, 4610 kPa, x2 = 0.8
  viscosity: 0.362 ± 0.036 mPa·s
[2]; 284.33 K, 3710 kPa, x2 = 0.5999
  viscosity: 0.578 ± 0.036 mPa·s
[2]; 284.41 K, 2630 kPa, x2 = 0.401
  viscosity: 0.96 ± 0.037 mPa·s
[2]; 284.44 K, 2530 kPa, x2 = 0.401
  viscosity: 0.972 ± 0.038 mPa·s
[2]; 284.6 K, 1460 kPa, x2 = 0.2009
  viscosity: 1.227 ± 0.052 mPa·s
[2]; 305.43 K, 5410 kPa, x2 = 0.5999
  viscosity: 0.487 ± 0.03 mPa·s
[2]; 305.44 K, 5360 kPa, x2 = 0.5999
  viscosity: 0.498 ± 0.03 mPa·s
[2]; 305.64 K, 1770 kPa, x2 = 0.2009
  viscosity: 0.865 ± 0.044 mPa·s
[2]; 305.65 K, 3610 kPa, x2 = 0.401
  viscosity: 0.667 ± 0.033 mPa·s
[2]; 305.69 K, 1730 kPa, x2 = 0.2009
  viscosity: 0.86 ± 0.043 mPa·s
[2]; 305.82 K, 6880 kPa, x2 = 0.8
  viscosity: 0.272 ± 0.027 mPa·s
[2]; 328.83 K, 10780 kPa, x2 = 0.8
  viscosity: 0.236 ± 0.026 mPa·s
[2]; 328.86 K, 7350 kPa, x2 = 0.5999
  viscosity: 0.373 ± 0.028 mPa·s
[2]; 328.99 K, 4470 kPa, x2 = 0.401
  viscosity: 0.493 ± 0.029 mPa·s
[2]; 329.3 K, 2050 kPa, x2 = 0.2009
  viscosity: 0.585 ± 0.046 mPa·s
[2]; 350.19 K, 5510 kPa, x2 = 0.401
  viscosity: 0.397 ± 0.028 mPa·s
[2]; 350.49 K, 14270 kPa, x2 = 0.8
  viscosity: 0.208 ± 0.026 mPa·s
[2]; 350.95 K, 9320 kPa, x2 = 0.5999
  viscosity: 0.305 ± 0.027 mPa·s
[2]; 351.33 K, 2490 kPa, x2 = 0.2009
  viscosity: 0.437 ± 0.031 mPa·s
